From the supplement of paper PMC11208160

Experiment: recombinant barcode read abundance after kanamycin selection (control-corrected) (log10(CPM+1)); higher = more efficient recombination; sequences stand for … in AGTGCAGAGAAAATCGGCCAGTTTTCTCTGCCTGCAGTCCGCATGCCGT…AGATTTATGCAGCGGACTGCCTTTCTCCCAAAGTGATAAACCGGACAGTATCATGGACCGGTTTTCCCGGTAATCCGTATTTGCAAGGTTGGTTTCACT; site = the 11-nt target
Outline: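 Recombination efficiency comes from barcode counts at recombinant junctions, converted to counts per million, averaged and corrected against the control. Values appear as log10(CPM+1). They were obtained from a pooled E. coli screen in which each oligo paired a target with an IS621 bridge RNA target-binding loop, and cells were plated in duplicate on chloramphenicol/ampicillin LB agar or on chloramphenicol/ampicillin/kanamycin with 0.1 mM IPTG.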
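Also: IS621 recombinase and bridge RNA in Escherichia coli cells.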

Sequence	recombinant barcode read abundance (log10)
CCGAATCCTTGGGTTCTAACCTGTTGCCT (site CCGACTCCTAG)	0.361
CCGAATCCTTGGGTTCTAACCTGTTGCCT (site CCGAGTCCTAG)	0.122
CCGAATCCTTGGGTTCTAACCTGTTGCCT (site CCGATTCCTAG)	0.199
CCGACTTCTTGGGTTCTAACCTGTTGCCT (site CAGACTTCTAG)	0.219
CCGACTTCTTGGGTTCTAACCTGTTGCCT (site CCGACTTCTAG)	0.164
CCGACTTCTTGGGTTCTAACCTGTTGCCT (site CGGACTTCTAG)	0.244
CCGACTTCTTGGGTTCTAACCTGTTGCCT (site CTGACTTCTAG)	0.129
CCGAGAGCTTGGGTTCTAACCTGTTGCCT (site CAGAGAGCTAG)	0.0908
CCGAGAGCTTGGGTTCTAACCTGTTGCCT (site CCGAGAGCTAG)	0.454
CCGAGAGCTTGGGTTCTAACCTGTTGCCT (site CGGAGAGCTAG)	0.0785
CCGAGAGCTTGGGTTCTAACCTGTTGCCT (site CTGAGAGCTAG)	0.0419
CCGCATGCTTGGGTTCTAACCTGTTGCCT (site CCGAATGCTAG)	0.0372
CCGCATGCTTGGGTTCTAACCTGTTGCCT (site CCGCATGCTAG)	0.234
CCGCATGCTTGGGTTCTAACCTGTTGCCT (site CCGGATGCTAG)	0.0172
CCGCATGCTTGGGTTCTAACCTGTTGCCT (site CCGTATGCTAG)	0.0765
CCGCCTCCTTGGGTTCTAACCTGTTGCAT (site CCGCCTCCTAT)	0.0412
CCGCCTCCTTGGGTTCTAACCTGTTGCAT (site CGTCCTCCTAT)	0.26
CCGCGGACTTGGGTTCTAACCTGTTGCTA (site CCGCGGACTTA)	0.989
CCGCGGACTTGGGTTCTAACCTGTTGCTA (site TAAAACCCTAT)	0.0107
CCGCGGACTTGGGTTCTAACCTGTTGCTT (site CCGCAGACTAA)	0.106
CCGCGGACTTGGGTTCTAACCTGTTGCTT (site CCGCGGACTAA)	0.578
CCGGCCACTTGGGTTCTAACCTGTTGCCT (site CAGGCCACTAG)	0.359

Sequence	recombinant barcode read abundance (log10)
CCGGCCACTTGGGTTCTAACCTGTTGCCT (site CCGGCCACTAG)	1.82
CCGGCCACTTGGGTTCTAACCTGTTGCCT (site CGGGCCACTAG)	0.164
CCGGCCACTTGGGTTCTAACCTGTTGCCT (site CTGGCCACTAG)	0.155
CCGGGATCTTGGGTTCTAACCTGTTGCCT (site ACGGGATCTAG)	0.323
CCGGGATCTTGGGTTCTAACCTGTTGCCT (site CCGGGATCTAG)	1.22
CCGGGATCTTGGGTTCTAACCTGTTGCCT (site GCGGGATCTAG)	0.161
CCGGGATCTTGGGTTCTAACCTGTTGCCT (site TCGGGATCTAG)	0.231
CCGGGTACTTGGGTTCTAACCTGTTGCCG (site AGCAACCCTTT)	0.0127
CCGGGTACTTGGGTTCTAACCTGTTGCCG (site CCGGGTACTCG)	1.66
CCGGTGACTTGGGTTCTAACCTGTTGCCT (site ACGGTGACTAG)	0.0889
CCGGTGACTTGGGTTCTAACCTGTTGCCT (site CCGGTGACTAG)	0.743
CCGGTGACTTGGGTTCTAACCTGTTGCCT (site GCGGTGACTAG)	0.146
CCGGTGACTTGGGTTCTAACCTGTTGCCT (site TCGGTGACTAG)	0.0596
CCGGTTGCTTGGGTTCTAACCTGTTGCCT (site CCGGATTCTAG)	0.0357
CCGGTTGCTTGGGTTCTAACCTGTTGCCT (site CCGGTTGCTAG)	2.76
CCGTCTACTTGGGTTCTAACCTGTTGCTT (site CCGTCTACTAA)	0.107
CCGTCTACTTGGGTTCTAACCTGTTGCTT (site CCGTCTACTCA)	0.457
CCGTCTACTTGGGTTCTAACCTGTTGCTT (site CCGTCTACTGA)	0.0444
CCGTCTACTTGGGTTCTAACCTGTTGCTT (site CCGTCTACTTA)	0.201
CCGTGAACTTGGGTTCTAACCTGTTGCCT (site CAGTGAACTAG)	0.0153
CCGTGAACTTGGGTTCTAACCTGTTGCCT (site CCGTGAACTAG)	0.275
CCGTGAACTTGGGTTCTAACCTGTTGCCT (site CGGTGAACTAG)	0.0382

Sequence	recombinant barcode read abundance (log10)
CCGTGAACTTGGGTTCTAACCTGTTGCCT (site CTGTGAACTAG)	0.163
CCGTGGACTTGGGTTCTAACCTGTTGCCA (site CAGGGGACTTG)	0.111
CCGTGGACTTGGGTTCTAACCTGTTGCCA (site CCGTGGACTTG)	0.42
CCTAAACCTTGGGTTCTAACCTGTTGCGT (site CCTAAACCTAC)	1.63
CCTAAACCTTGGGTTCTAACCTGTTGCGT (site CCTAACCCTAC)	0.0278
CCTAAACCTTGGGTTCTAACCTGTTGCGT (site CCTAAGCCTAC)	0.03
CCTAAACCTTGGGTTCTAACCTGTTGCGT (site CCTAATCCTAC)	0.0605
CCTAACACTTGGGTTCTAACCTGTTGCCT (site ACTAACACTAG)	0.0635
CCTAACACTTGGGTTCTAACCTGTTGCCT (site CCTAACACTAG)	0.501
CCTAACACTTGGGTTCTAACCTGTTGCCT (site GCTAACACTAG)	0.0372
CCTAACACTTGGGTTCTAACCTGTTGCCT (site TCTAACACTAG)	0.114
CCTACACCTTGGGTTCTAACCTGTTGCCT (site CCTACAACTAG)	0.0638
CCTACACCTTGGGTTCTAACCTGTTGCCT (site CCTACACCTAG)	0.928
CCTACACCTTGGGTTCTAACCTGTTGCCT (site CCTACAGCTAG)	0.0384
CCTACACCTTGGGTTCTAACCTGTTGCCT (site CCTACATCTAG)	0.52
CCTAGACCTTGGGTTCTAACCTGTTGCCT (site CCTAGAACTAG)	0.067
CCTAGACCTTGGGTTCTAACCTGTTGCCT (site CCTAGACCTAG)	0.771
CCTAGACCTTGGGTTCTAACCTGTTGCCT (site CCTAGAGCTAG)	0.201
CCTAGACCTTGGGTTCTAACCTGTTGCCT (site CCTAGATCTAG)	0.312
CCTAGCACTTGGGTTCTAACCTGTTGCGA (site CCTAGCACTTC)	0.939
CCTAGCACTTGGGTTCTAACCTGTTGCGA (site CCTCGCACTTC)	0.0896
CCTAGCACTTGGGTTCTAACCTGTTGCGA (site CCTGGCACTTC)	0.0943

Sequence	recombinant barcode read abundance (log10)
CCTAGCACTTGGGTTCTAACCTGTTGCGA (site CCTTGCACTTC)	0.0494
CCTATAGCTTGGGTTCTAACCTGTTGCTT (site CCTATAGCTAA)	0.0878
CCTATAGCTTGGGTTCTAACCTGTTGCTT (site GAGTCTACTTG)	0.0203
CCTCAGGCTTGGGTTCTAACCTGTTGCCT (site CCTCAGGCTAG)	0.106
CCTCAGGCTTGGGTTCTAACCTGTTGCCT (site CCTCAGGCTCG)	0.0672
CCTCAGGCTTGGGTTCTAACCTGTTGCCT (site CCTCAGGCTGG)	0.107
CCTCAGGCTTGGGTTCTAACCTGTTGCCT (site CCTCAGGCTTG)	0.204
CCTCAGTCTTGGGTTCTAACCTGTTGCTT (site CCTCAATCTAA)	0.441
CCTCAGTCTTGGGTTCTAACCTGTTGCTT (site CCTCACTCTAA)	0.0235
CCTCAGTCTTGGGTTCTAACCTGTTGCTT (site CCTCAGTCTAA)	1.68
CCTCAGTCTTGGGTTCTAACCTGTTGCTT (site CCTCATTCTAA)	0.122
CCTCGAGCTTGGGTTCTAACCTGTTGCGG (site CCTCGAGCTCC)	1.86
CCTCGAGCTTGGGTTCTAACCTGTTGCGG (site TCTAGAGCTCC)	0.184
CCTCGCACTTGGGTTCTAACCTGTTGCGA (site CCTAGCACTTC)	0.126
CCTCGCACTTGGGTTCTAACCTGTTGCGA (site CCTCGCACTTC)	0.112
CCTCGCACTTGGGTTCTAACCTGTTGCGA (site CCTGGCACTTC)	0.0155
CCTCGCACTTGGGTTCTAACCTGTTGCGA (site CCTTGCACTTC)	0.0861
CCTCGCGCTTGGGTTCTAACCTGTTGCCT (site CCTAACGCTAG)	0.822
CCTCGCGCTTGGGTTCTAACCTGTTGCCT (site CCTCGCGCTAG)	0.354
CCTCGGACTTGGGTTCTAACCTGTTGCAT (site CATCGTACTAT)	0.0825
